The text below walks through data of patent US20250302965A1, “Preparations of Basic pH Hydrotropes & Methods for Making Same” (Aurora Pharmaceutical, Inc., priority 2023, published 2025).

Molecules are shown by their SMILES.

Assay in one data set: not given
Particulars: source named in cell (Merck Index, Pubchem, published literature); cited from earlier work.
`CCc1ccc(Nc2c(F)c(F)cc(F)c2F)c(CC(=O)O)c1` [Robenacoxib]: the “Reported Solubility in Water (in w/v)” value is 0.017% (published literature) % w/v.
In the case of `CCc1nc2c(C)nc(C)cc2n1-c1ccc(CCNC(=O)NS(=O)(=O)c2ccc(C)cc2)cc1` [Grapiprant], the “Reported Solubility in Water (in w/v)” value is “Insoluble (Pubchem)”.
Consider `Nc1ccc(S(=O)(=O)Nc2ncccn2)cc1` [Sulfadiazine], for which the “Reported Solubility in Water (in w/v)” value is on record as 0.0077% (Pubchem) % w/v.
Take `COc1cc(NS(=O)(=O)c2ccc(N)cc2)nc(OC)n1` [Sulfadimethoxine]: the “Reported Solubility in Water (in w/v)” value is listed as 0.0343% (Pubchem) % w/v.
Take `CN1C(C(=O)Nc2ccccn2)=C(O)c2ccccc2S1(=O)=O` [Piroxicam]: the “Reported Solubility in Water (in w/v)” value is on record as 0.00497% (Pubchem) % w/v.
Turning to `CC(C(=O)O)c1ccc2c(c1)[nH]c1ccc(Cl)cc12` (stereo not drawn) [Carprofen], the “Reported Solubility in Water (in w/v)” value is listed as 0.00411% (Pubchem) % w/v.

A short description of the next data set: Solubilization by meglumine chelate system (hydrotrope) at basic pH. The note with it: basic pH with meglumine.
In the case of `COc1ccc(-c2cc(C(F)F)nn2-c2ccc(S(N)(=O)=O)cc2)cc1F` [Deracoxib], the “Dissolution after treatment to create a chelate system” value (“Dissolution after treatment” below) was “Contains two aromatic groups and an aryl amino sulfone but the two nitrogen atoms between the aromatic groups are not secondary amines, amides or amino sulfones and did not dissolve when tested”.
`CO/N=C1\C[C@]2(C[C@@H]3C[C@@H](C/C=C(\C)C[C@@H](C)/C=C/C=C4\CO[C@@H]5[C@H](O)C(C)=C[C@@H](C(=O)O3)[C@]45O)O2)O[C@H](/C(C)=C/C(C)C)[C@H]1C` [Moxidectin]: the “Dissolution after treatment” value was “No amines, amides, amino sulfones, or aromatic groups and did not dissolve when tested”.
On the same count and under the same terms, then `O=C(NC(=O)c1c(F)cccc1F)Nc1cc(Cl)c(OC(F)(F)C(F)C(F)(F)F)cc1Cl` (stereo not drawn) [Lufenuron], with “Contains two aromatic groups separated by two amide groups between the two aromatic groups and did not dissolve when tested”; and `O=C(CNC(=O)c1ccc(C2=NOC(c3cc(Cl)cc(C(F)(F)F)c3)(C(F)(F)F)C2)c2ccccc12)NCC(F)(F)F` (stereo not drawn) [Afoxolaner], with “Contains two amides and two aromatic groups, but the amides are not on a chain between the two aromatic groups. The one nitrogen atom that is between the two aromatic groups is not a secondary amine, amide or amino sulfone and did not dissolve when tested”; and `CCN1CCN(c2cc3c(cc2F)c(=O)c(C(=O)O)cn3C2CC2)CC1` [Enrofloxacin], with “Contains only tertiary amines and only one aromatic group and did not dissolve when tested”.
Same read-out and setting: then `CS(=O)(=O)c1ccc([C@@H](O)[C@@H](CF)NC(=O)C(Cl)Cl)cc1` [Florfenicol], with “Contains an amide and an aryl sulfone, but only one aromatic group and did not dissolve when tested”; and `CC[C@H](C)[C@H]1O[C@]2(C=C[C@@H]1C)C[C@@H]1C[C@@H](C/C=C(\C)[C@@H](O[C@H]3C[C@H](OC)[C@@H](O[C@H]4C[C@H](OC)[C@H](NC(C)=O)[C@H](C)O4)C(C)O3)[C@@H](C)/C=C/C=C3\CO[C@@H]4[C@H](O)C(C)=C[C@@H](C(=O)O1)[C@]34O)O2` (stereo partly drawn) [Eprinomectin], with “Contains an amide, but no amines, amino sulfones or aromatic groups and did not dissolve when tested”; and `O=[N+]([O-])/N=C1\NCCN1Cc1ccc(Cl)nc1` [Imidacloprid], with “Contains a secondary amine and other nitrogen containing groups but only one aromatic group and did not dissolve when tested”.
On the same count and under the same terms, then `Cc1cc(-n2c(=O)[nH]c(=O)n(C)c2=O)ccc1Oc1ccc(S(=O)(=O)C(F)(F)F)cc1` [Ponazuril], with “Contains two aromatic groups and a sulfoxide and an amide, but the amide is not on the chain between the two aromatic rings and did not dissolve when tested”; and `COc1ccc2[nH]c([S+]([O-])Cc3ncc(C)c(OC)c3C)nc2c1` (stereo not drawn) [Omeprazole], with “Contains an aromatic benzene ring, a sulfoxide and an aromatic benzimidazole group, but it does not contain a secondary amine, amide or amino sulfone group and did not dissolve when tested”; and `COC(=O)Nc1nc2ccc(Sc3ccccc3)cc2[nH]1` [Fenbendazole], with “Contains two aromatic groups and an amide, but the amide is not on the chain between the two aromatic groups and did not dissolve when tested”.
As to `CC1(C)OC(=O)C(OCC2CC2)=C1c1ccc(S(C)(=O)=O)cc1` [Firocoxib], the “Dissolution after treatment” value is “Does not contain any nitrogen and only one aromatic group with an aryl sulfone and did not dissolve when tested”.

The same data set, now with this note: basic pH, meglumine at least 2:1 molar ratio (meglumine to molecule).
On to `CCc1nc2c(C)nc(C)cc2n1-c1ccc(CCNC(=O)NS(=O)(=O)c2ccc(C)cc2)cc1` [Grapiprant], for which the “Examples of Solubilities Demonstrated in Experiments (in w/v)” value is listed as “At least 1.5% w/v”.

A short description of a further data set: Meloxicam formulations at different meglumine-to-meloxicam molar ratios; neutralization. The class given is physicochemical. Particulars: […] w/v meloxicam formula, 2:1 meglumine-to-meloxicam, neutralized; pH crossed neutral.
Regarding `Cc1cnc(NC(=O)C2=C(O)c3ccccc3S(=O)(=O)N2C)s1` [Meloxicam], the Behaviour on neutralization entry is “fell out of solution”.

Assay in a further data set: not given
The note with it: cited from earlier work.
Regarding `CNC[C@H](O)[C@@H](O)[C@H](O)[C@H](O)CO` [Meglumine], the “acidity (pKa)” value was 8.01.
